Laboratory results published in patent publication US6664400B2 (dated 2003).

Molecule `O=C1[C@H]2C[C@H](F)CN2C(=O)N1c1cc(NS(=O)(=O)CCl)c(Cl)cc1F` has a melting point of 168 to 170 °C.
